Series [1] relates to Asexual parasites of P. falciparum strain 3D7. Description: In vitro drug activity on asexual parasites (SYBR Green assay). The series is classed as cell-based, Plasmodium falciparum. The procedure, abridged: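 3D7 parasites at 0.5% parasitemia and 2% hematocrit were exposed to drugs (DMSO ≤0.5%) for 72 h under standard culture conditions, in duplicate. After freeze-thaw lysis, SYBR Green I lysis buffer was added for 30 min at room temperature, and fluorescence was read at 490/520 nm.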

Series [2] deals with mTOR (Homo sapiens, UniProt P42345). Description: mTOR activity (no method described). The series is classed as biochemical.
The nature of series [3]: Microsomal stability (rat). Format: in vitro ADME. Conditions: rat microsomes.
Series [4] can be described thus: Solubility at pH 7.4. Format: physicochemical.
Series [5] can be described thus: PAMPA permeability. The series is classed as in vitro ADME.

Usually EC50 stands for the midpoint of the concentration-response curve. In turn, `NC1(c2ccc(-c3ccc4ncc5ccc(=O)n(-c6ccc(C(=O)NC7CC7)cc6)c5c4c3)cc2)CC1` [Compound 97] had a concentration for a half-maximal effect (EC50) in series [1] of 101 nM. In series [2], this compound showed a mTOR of 1400 nM. Besides, in series [3], the “Microsomal Stability (rat) T1/2” value was greater than 30 min. Moreover, in series [4], the “Sol @ pH 7.4” value turned out to be 7.1 ug/mL. The same compound gave a PAMPA Permeability in series [5] of 35.8 ×10⁻⁶ cm/s.

The compound `Cc1cc(C(=O)NC2CC2)ccc1-n1c(=O)ccc2cnc3ccc(-c4ccc(F)c(O)c4)cc3c21` [Compound 222] showed an EC50 in series [1] of 22.8 nM. This compound also displayed a mTOR in series [2] of 820.6 nM. Besides, the “Microsomal Stability (rat) T1/2” value in series [3] is given as 27.2 min. Also, the “Sol @ pH 7.4” value in series [4] was found to be 7.1 ug/mL. The compound further gave a PAMPA Permeability in series [5] of 758 ×10⁻⁶ cm/s.

For the compound `CCCCNC(=O)c1ccc(-n2c(=O)ccc3cnc4ccc(-c5ccc(Cl)cc5)cc4c32)cc1` [Compound 209], the midpoint of the response in series [1], the EC50, lay at 538 nM. The same compound came in with a mTOR in series [2] of 2492 nM. Besides, in series [3], the “Microsomal Stability (rat) T1/2” value turned out to be 4 min. The “Sol @ pH 7.4” value in series [4] is given as less than 1 ug/mL. For the same compound, the PAMPA Permeability in series [5] was less than 1 ×10⁻⁶ cm/s.

`O=C(c1ccc(-n2c(=O)ccc3cnc4ccc(-c5ccc(CCN6CCCC6)cc5)cc4c32)cc1)N1CCOCC1` [Compound 217]: the EC50 in series [1] was found to be 531 nM. In series [2], this compound gave a mTOR of 17830 nM. Besides, in series [3], the “Microsomal Stability (rat) T1/2” value was greater than 30 min. Also, in series [4], the “Sol @ pH 7.4” value is greater than 83 ug/mL. Further, the PAMPA Permeability in series [5] was found to be 130 ×10⁻⁶ cm/s.

On to `CN(C)CCc1cccc(-c2ccc3ncc4ccc(=O)n(-c5ccc(C(=O)N6CCOCC6)cc5)c4c3c2)c1` [Compound 212], for which the response in series [1] was half-maximal at 3890 nM (EC50). Besides, the mTOR in series [2] is given as 15800 nM. The “Microsomal Stability (rat) T1/2” value in series [3] is listed as greater than 30 min. The “Sol @ pH 7.4” value in series [4] is on record as greater than 79 ug/mL. This compound also returned a PAMPA Permeability in series [5] of 189 ×10⁻⁶ cm/s.

Consider `Cc1cc(C(=O)NC2CCN(CCN(C)C)CC2)ccc1-n1c(=O)ccc2cnc3ccc(-c4ccc(Cl)cc4)cc3c21` [Compound 280], for which a half-maximal response in series [1] (EC50) required 152 nM. In addition, in series [2], the mTOR amounted to 1609 nM. Moreover, the “Microsomal Stability (rat) T1/2” value in series [3] is greater than 30 min. In addition, the “Sol @ pH 7.4” value in series [4] is 73.6 ug/mL. The compound also came in with a PAMPA Permeability in series [5] of 49.1 ×10⁻⁶ cm/s.

In series [1], `COc1cc(C(=O)NCCN(C)c2ccccc2)ccc1-n1c(=O)ccc2cnc3ccc(-c4ccc(Cl)cc4)cc3c21` [Compound 251] yielded a 50% effective concentration (EC50) of 2370 nM. In series [2], this compound yielded a mTOR of 100000 nM. Besides, the “Microsomal Stability (rat) T1/2” value in series [3] was determined as 1.3 min. For the same compound, the “Sol @ pH 7.4” value in series [4] is given as less than 1 ug/mL. In series [5], this compound returned a PAMPA Permeability of less than 1 ×10⁻⁶ cm/s.

`CN1Cc2ccc(-c3ccc4ncc5ccc(=O)n(-c6ccc(C(=O)N7CCOCC7)cc6)c5c4c3)cc2C1` [Compound 244] registered an EC50 in series [1] of 1640 nM. This compound registered a mTOR in series [2] of 7873 nM. For the same compound, the “Microsomal Stability (rat) T1/2” value in series [3] is recorded as greater than 30 min. Also, the “Sol @ pH 7.4” value in series [4] is recorded as greater than 76 ug/mL. In addition, the PAMPA Permeability in series [5] was determined as 216 ×10⁻⁶ cm/s.

`CCN(CC)CCNC(=O)c1ccc(-n2c(=O)ccc3cnc4ccc(-c5ccc(Cl)cc5)cc4c32)cc1` [Compound 284] had an EC50 in series [1] of 183 nM. Besides, the mTOR in series [2] amounted to 9354 nM. In series [3], the “Microsomal Stability (rat) T1/2” value was determined as 7.5 min. For the same compound, the “Sol @ pH 7.4” value in series [4] stood at 36.6 ug/mL. In series [5], the PAMPA Permeability turned out to be 281 ×10⁻⁶ cm/s.

Compound `COc1cc(-c2ccc3ncc4ccc(=O)n(-c5ccc(C(=O)NC6CC6)cc5)c4c3c2)ccc1Cl` [Compound 221] had an EC50 in series [1] of 45.5 nM. Further, the mTOR in series [2] is 1504 nM. Further, the “Microsomal Stability (rat) T1/2” value in series [3] is listed as 22.2 min. In series [4], the “Sol @ pH 7.4” value was less than 1 ug/mL. For the same compound, in series [5], the PAMPA Permeability worked out at 133 ×10⁻⁶ cm/s.

For `O=C(NCCCO)c1ccc(-n2c(=O)ccc3cnc4ccc(-c5ccc(Cl)cc5)cc4c32)cc1` [Compound 214], in series [1], the response was half-maximal at 18.8 nM (EC50). The mTOR in series [2] worked out at 339.4 nM. In addition, the “Microsomal Stability (rat) T1/2” value in series [3] is given as 21.2 min. Also, the “Sol @ pH 7.4” value in series [4] is less than 1 ug/mL. Also, in series [5], the PAMPA Permeability amounted to 333 ×10⁻⁶ cm/s.

Compound `CCN(CC)Cc1ccc(-c2ccc3ncc4ccc(=O)n(-c5ccc(C(=O)NC6CC6)cc5)c4c3c2)cc1` [Compound 243] registered a half-maximal effective concentration (EC50) in series [1] of 677 nM. For the same compound, in series [2], the mTOR came to 14600 nM. Also, in series [3], the “Microsomal Stability (rat) T1/2” value is greater than 30 min. Also, the “Sol @ pH 7.4” value in series [4] is greater than 76 ug/mL. Moreover, in series [5], the PAMPA Permeability was 382 ×10⁻⁶ cm/s.

Take `NCCc1ccc(-c2ccc3ncc4ccc(=O)n(-c5ccc(C(=O)NC6CC6)cc5)c4c3c2)cc1` [Compound 240]: the EC50 in series [1] came out at 52.9 nM. In series [2], the mTOR turned out to be 443.6 nM. Further, the “Microsomal Stability (rat) T1/2” value in series [3] is recorded as greater than 30 min. In addition, in series [4], the “Sol @ pH 7.4” value amounted to 31.6 ug/mL. The PAMPA Permeability in series [5] is less than 1 ×10⁻⁶ cm/s.

In the case of `O=C(NC1CC1)c1ccc(-n2c(=O)ccc3cnc4ccc(-c5ccc(Cl)c(O)c5)cc4c32)cc1` [Compound 204], in series [1], the concentration giving a half-maximal response (EC50) turned out to be 14.3 nM. Besides, the mTOR in series [2] is 257.1 nM. In addition, in series [3], the “Microsomal Stability (rat) T1/2” value is greater than 30 min. In addition, the “Sol @ pH 7.4” value in series [4] is on record as less than 1 ug/mL. Also, the PAMPA Permeability in series [5] is less than 1 ×10⁻⁶ cm/s.

In turn, `O=C(NC1CCNC1)c1ccc(-n2c(=O)ccc3cnc4ccc(-c5ccc(Cl)cc5)cc4c32)cc1` (centres unmarked) [Compound 96] gave an EC50 in series [1] of 37.3 nM. Moreover, in series [2], the mTOR was determined as 1291 nM. The “Microsomal Stability (rat) T1/2” value in series [3] is greater than 30 min. In series [4], the “Sol @ pH 7.4” value is given as 11.4 ug/mL. The PAMPA Permeability in series [5] was found to be 7.8 ×10⁻⁶ cm/s.

Turning to `Cn1c(=O)n(-c2ccc(C(=O)O)cc2)c2c3cc(-c4ccc(Cl)cc4)ccc3ncc21` [Compound 435], it took 3660 nM to reach a half-maximal effect in series [1] (EC50). The mTOR in series [2] turned out to be 364.6 nM. In addition, in series [3], the “Microsomal Stability (rat) T1/2” value was greater than 30 min. The “Sol @ pH 7.4” value in series [4] is 30.8 ug/mL. Moreover, the PAMPA Permeability in series [5] was 11 ×10⁻⁶ cm/s.

In series [1], `COc1cc(C(=O)NC2CC2)ccc1-n1c(=O)ccc2cnc3ccc(-c4ccc(F)c(O)c4)cc3c21` [Compound 272] gave an EC50 of 52.1 nM. The mTOR in series [2] stood at 5227 nM. Also, in series [3], the “Microsomal Stability (rat) T1/2” value worked out at 21.9 min. The “Sol @ pH 7.4” value in series [4] is recorded as 11.8 ug/mL. In series [5], this compound registered a PAMPA Permeability of 626 ×10⁻⁶ cm/s.

With `Cc1cc(C(=O)NCCN2CCN(C)CC2)ccc1-n1c(=O)ccc2cnc3ccc(-c4ccc(Cl)cc4)cc3c21` [Compound 277], the half-maximal effective concentration (EC50) in series [1] came to 82.5 nM. Further, in series [2], the mTOR amounted to 3631 nM. In series [3], the “Microsomal Stability (rat) T1/2” value worked out at 3.8 min. Besides, the “Sol @ pH 7.4” value in series [4] came out at 19.9 ug/mL. The same compound came in with a PAMPA Permeability in series [5] of 354 ×10⁻⁶ cm/s.

With `O=C(NC1CNC1)c1ccc(-n2c(=O)ccc3cnc4ccc(-c5ccc(Cl)cc5)cc4c32)cc1` [Compound 232], a half-maximal effect in series [1] (EC50) was put at 53.4 nM. In series [2], this compound gave a mTOR of 1065 nM. For the same compound, in series [3], the “Microsomal Stability (rat) T1/2” value is given as greater than 30 min. For the same compound, in series [4], the “Sol @ pH 7.4” value worked out at 9.2 ug/mL. For the same compound, the PAMPA Permeability in series [5] came to 7.6 ×10⁻⁶ cm/s.

`Cc1nc2ccc(-c3ccc(Cl)cc3)cc2c2c1ccc(=O)n2-c1ccc(C(=O)N2CCOCC2)cc1` [Compound 234] returned an EC50 in series [1] of 2220 nM. In series [2], this compound displayed a mTOR of 18920 nM. In series [3], the “Microsomal Stability (rat) T1/2” value stood at 1.4 min. Also, in series [4], the “Sol @ pH 7.4” value is recorded as less than 1 ug/mL. In series [5], this compound yielded a PAMPA Permeability of 874 ×10⁻⁶ cm/s.

In series [1], `CN(C)CCN1CCN(C(=O)c2ccc(-n3c(=O)ccc4cnc5ccc(-c6ccc(Cl)cc6)cc5c43)cc2)CC1` [Compound 95] had a concentration for a half-maximal effect (EC50) of 15.7 nM. The compound further yielded a mTOR in series [2] of 1731 nM. In addition, the “Microsomal Stability (rat) T1/2” value in series [3] is greater than 30 min. In series [4], the “Sol @ pH 7.4” value is 54.7 ug/mL. In series [5], this compound returned a PAMPA Permeability of 674 ×10⁻⁶ cm/s.

As to `COc1cc(C(=O)NCCN2CCC2)ccc1-n1c(=O)ccc2cnc3ccc(-c4ccc(Cl)cc4)cc3c21` [Compound 253], in series [1], the EC50 is 258 nM. For the same compound, the mTOR in series [2] amounted to 8463 nM. Besides, the “Microsomal Stability (rat) T1/2” value in series [3] is greater than 30 min. Besides, in series [4], the “Sol @ pH 7.4” value is greater than 80 ug/mL. For the same compound, the PAMPA Permeability in series [5] was found to be 353 ×10⁻⁶ cm/s.

(Values after US11753408B2, “Compounds and method for blocking transmission of malarial parasite” (The United States of America, as represented by the …, priority 2016, dated 2023).)
